Conditions in the first series: not given
One may read the boiling point as the temperature at which the vapour pressure of the liquid equals the pressure above it. As a reminder, the melting point is the temperature of the solid-liquid transition. Consider `C#CCCCCCCCCCCCCCCCCCC`, for which the boiling point amounted to 340 °C and the melting point stood at 36 °C.
As to `CC1=NN(c2ccc(C)cc2)C(=O)C1`, the melting point was determined as 138 °C.
Compound `CCCCCC(N)=O` had a boiling point of 255 °C and a melting point of 101 °C.
On the same counts, the results for `c1ccc2cc(Nc3ccc4ccccc4c3)ccc2c1` are 471 °C and 172 °C.
For the compound `CC(C)CC(C)Nc1ccc(Nc2ccccc2)cc1` (stereo not given), the ready biodegradability entry is reported as “not readily biodegradable”.
As to `OCC(CO)(CO)COCC(CO)(CO)CO`, the melting point stood at 221 °C and the ready biodegradability result is on record as “not readily biodegradable”.
With `CCCc1ccccn1`, the boiling point amounted to 167 °C and the melting point is 2 °C.
The compound `CNC(=O)Oc1cc(C(C)(C)C)cc(C(C)(C)C)c1` registered a log10 vapour pressure (mmHg) of -5.7 and a melting point of 103 °C.
For `CC(C)C1CCCc2ccccc21` (stereo not given), the ready biodegradability result is listed as “not readily biodegradable”.
In the case of `CCC(CC)CO`, the boiling point stood at 147 °C and the log10 vapour pressure (mmHg) was determined as 0.185.
Compound `CCN(CC)c1c([N+](=O)[O-])cc(C(F)(F)F)c(N)c1[N+](=O)[O-]` had a log10 Koc (L/kg) of 3.63, a log10 vapour pressure (mmHg) of -5.44 and a melting point of 98 °C.
As for `CCN(CC)CCSC(=O)N(c1ccccc1)c1ccccc1`, the melting point was 48.5 °C.
As for `O=[N+]([O-])c1c(Cl)cc(Cl)cc1Cl`, the melting point worked out at 72 °C and the ready biodegradability entry was “not readily biodegradable”.
On to `CC(C)COCc1ccccc1`, for which the boiling point was determined as 212 °C.
In turn, `O=C(NC(=O)c1c(F)cccc1F)Nc1cc(Cl)c(F)c(Cl)c1F` showed a log10 vapour pressure (mmHg) of -11.2 and a melting point of 222 °C.
In turn, `C=C1C(=O)O[C@@H]2C=C(CO)CCC=C(C)C[C@H](OC(=O)C(=C)[C@@H](O)CO)[C@@H]12` had a melting point of 143 °C.
For `CC(N)(CO)CO`, the melting point amounted to 110 °C.
Same read-out and setting: to `O=C[C@H](O)[C@H](O)[C@H](O)CO` belongs 98.5 °C; to `Nc1ccc(Br)cc1C(=O)O`, 220 °C.
`C=CCOC=C` displayed a boiling point of 66 °C.
In the case of `CC(=O)Nc1ccc(Br)cc1`, the log10 Koc (L/kg) worked out at 1.95.
`CC1=C(/C=C/C(C)=C/C=C/C(C)=C/C=C/C=C(C)/C=C/C=C(C)/C=C/C2=C(C)C[C@@H](O)CC2(C)C)C(C)(C)C[C@H](O)C1` yielded a melting point of 216 °C.
Consider `CC(C)CCc1ccccc1`, for which the boiling point worked out at 195 °C.
`Cc1cc2c(cc1S(N)(=O)=O)S(=O)(=O)CCC2`: the melting point was 236 °C.
On to `CCCCc1cccnc1`, for which the boiling point was determined as 206 °C.
On to `CCC(COCCOc1c(I)cc(I)c(NC(C)=O)c1I)C(=O)O` (stereo not given), for which the melting point worked out at 130 °C.
`CC1=CCCC1=O` gave a boiling point of 157 °C.
For `CC1=CCC(C(C)(C)O)CC1` (stereo not given), the boiling point came out at 219 °C, the log10 Henry constant (atm·m³/mol) is -5.65, the log10 vapour pressure (mmHg) was -1.37 and the melting point came to 37 °C. The ready biodegradability entry was “readily biodegradable”.
Take `CCC(CC)C(=O)OCCOCCOCCOC(=O)C(CC)CC`: the ready biodegradability result is “readily biodegradable”.
`CC(CO)N(C)C` (stereo not given): the boiling point is 150 °C.
The same measure, in the same setting: to `CC(O)COc1ccccc1` (stereo not given) belongs 243 °C.
Regarding `C=CC(=O)OCC`, the boiling point was found to be 99.4 °C, the log10 vapour pressure (mmHg) is 1.59, the melting point is -71.2 °C and the ready biodegradability entry is on record as “readily biodegradable”.
`CCCCCCCCCCCCC=O`: the melting point was found to be 14 °C.
Consider `FC(F)(F)C(Cl)=CCl`, for which the boiling point amounted to 53.7 °C and the melting point is -109 °C.
In turn, `NS(=O)(=O)c1ccc([N+](=O)[O-])cc1` gave a melting point of 179 °C.
In turn, `CC(=O)OCCl` yielded a boiling point of 116 °C.
The same measure, in the same setting: with `CC(F)(F)C(Cl)(Cl)Cl` the figure was 73 °C.
In turn, `CCCCCCCCCCCCCCN` showed a boiling point of 291 °C, a log10 vapour pressure (mmHg) of -3.01 and a melting point of 83.1 °C.
For the compound `c1ccc2c(c1)Sc1ccccc1S2`, the boiling point stood at 365 °C, the melting point worked out at 159 °C and the ready biodegradability entry is listed as “not readily biodegradable”.
`Nc1ccc(N=Nc2ccc([N+](=O)[O-])cc2)cc1` had a log10 vapour pressure (mmHg) of -9.52 and a melting point of 215 °C.
Take `CC1=NCCS1`: the boiling point came to 145 °C and the melting point is -101 °C.
`Cc1ccc(Cl)c(OCC(O)CNC(C)(C)C)c1` (stereo not given) came in with a melting point of 221 °C.
Same read-out and setting: with `Oc1ccccc1N=Nc1ccccc1O` the figure was 173 °C; with `CCOC=C(C#N)C#N`, 66 °C; with `CC(=O)O.CC(=O)O.N=C(NCCCCCCNC(=N)NC(=N)Nc1ccc(Cl)cc1)NC(=N)Nc1ccc(Cl)cc1`, 154 °C.
The same measure, in the same setting: with `COC(=O)C1C2C=CC(C2)C1C(=O)OC` (stereo not given) the figure was 38 °C.
`CC(=O)Cc1ccccc1`: the boiling point is 216 °C and the melting point was -15 °C.
`CCOC(=O)Nc1ccc(NCc2ccc(F)cc2)nc1N` showed a melting point of 116 °C.
The same measure, in the same setting: with `NS(=O)(=O)c1cccc([N+](=O)[O-])c1` the figure was 167 °C.
Consider `COP(N)(=O)SC` (stereo not given), for which the log10 Koc (L/kg) was found to be 0.7, the log10 vapour pressure (mmHg) is -4.45 and the melting point was 46 °C.
With `CNC(=O)N(C)c1nnc(C(C)(C)C)s1`, the log10 Henry constant (atm·m³/mol) is -9.92, the log10 Koc (L/kg) worked out at 1.83 and the log10 vapour pressure (mmHg) is -5.7.
Compound `CNc1ccccc1[N+](=O)[O-]` yielded a melting point of 38 °C.
`COc1cccc(F)c1`: the boiling point came to 159 °C and the melting point is -35 °C.
For `Cn1c(=O)ccc2ccccc21`, in that order: 325 °C and 74 °C.
For `CC[C@@H](N)CO`, in that order: 178 °C and -2 °C.
As to `O=C1OC(c2ccc(O)c3ccccc23)(c2ccc(O)c3ccccc23)c2ccccc21`, the melting point is 254 °C.
`CN(C)CC(O)c1ccc(O)c(O)c1` (stereo not given) gave a melting point of 149 °C.
Still for that read-out and setting: with `O=[N+]([O-])c1cccc2c(Cl)cccc12` the figure was 111 °C.
Take `CNc1ccccc1C(=O)OC`: the boiling point came out at 255 °C and the melting point turned out to be 19 °C.
In turn, `CC(=O)OCC(=O)[C@@]1(O)[C@H](OC(C)=O)C[C@H]2[C@@H]3CCC4=CC(=O)C=C[C@]4(C)[C@@]3(F)[C@@H](O)C[C@@]21C` registered a melting point of 235 °C.
Compound `O=C1c2ccccc2-c2ccc3c4c(ccc1c24)-c1ccccc1C3=O` showed a log10 Koc (L/kg) of 4.28 and a melting point of 385 °C.
On to `CCC(C)C(O)C(C)CC` (stereo not given), for which the boiling point came out at 186 °C.
As for `NC(=O)N=NC(N)=O`, the log10 vapour pressure (mmHg) was -9.73 and the ready biodegradability result is on record as “not readily biodegradable”.
Regarding `CC(O)C(C)Cl` (stereo not given), the boiling point was determined as 139 °C.
On the same count and under the same terms, to `C[Si](C)(Cl)CBr` belongs 131 °C.
Turning to `CCc1cc(C)ccc1C`, the boiling point was 187 °C, the log10 biodegradation half-life (days) is 0.477, the log10 vapour pressure (mmHg) was -0.0272 and the melting point was -53.7 °C.
With `COc1cc2c(cc1OC)[C@@]13CCN4CC5=CCO[C@H]6CC(=O)N2[C@H]1[C@H]6[C@H]5C[C@H]43`, the melting point was 178 °C.
For `COc1ccc(C=O)cc1`, the boiling point was 248 °C, the log10 vapour pressure (mmHg) is -1.48, the melting point came out at 0 °C and the ready biodegradability result was “readily biodegradable”.
Consider `Cc1ccc([N+](=O)[O-])c(Cl)c1`, for which the melting point is 24 °C.
The same measure, in the same setting: with `C=CC(=O)NC(C)(C)CC(C)=O` the figure was 57.5 °C.

The series is the same for the next values; noted with them: fish.
As for `O=[N+]([O-])c1c(Cl)cc(Cl)cc1Cl`, the log10 BCF was 2.47 and the log10 biotransformation half-life (days) amounted to 0.71.
`Clc1ccc(Oc2cc(Cl)c(Cl)cc2Cl)c(Cl)c1` yielded a log10 biotransformation half-life (days) of 2.02.

Source of the values: the OPERA property sets (Mansouri et al. 2018).
